Data on 28 compounds can be found in article PMC10461229 (Journal of Medicinal Chemistry, 2023).

A value given as a limit tells only on which side of the number the result lay.

One assay relates to wild-type (WT) Mtb Erdman. As to the kind of experiment: microbe, parasite or virus in culture. Type of assay: cell-based, Mycobacterium tuberculosis. The settings on record: Mycobacterium tuberculosis, ERDMAN, read-out: MABA mean IC50 ± SD.
For the compound `O=C(O)C1CSc2c(C3CC3)c(CSc3nnc(-c4cccc5ccccc45)o3)cc(=O)n21` (racemic) [Compound 8a, (±) 8-Cyclopropyl-7-(((5-(naphthalen-1-yl)-1,3,4-oxadiazol-2-yl)thio)methyl)-5-oxo-2,3-dihydro-5H-thiazolo[3,2-a]pyridine-3-carboxylic Acid], the IC50 was 12.6 ± 2.16 µM.

On to `O=C(O)C1CSc2c(C3CC3)c(CSc3nnc(Cc4cccc5ccccc45)o3)cc(=O)n21` (racemic) [Compound 8c, (±) 8-Cyclopropyl-7-(((5-(naphthalen-1-ylmethyl)-1,3,4-oxadiazol-2-yl)thio)methyl)-5-oxo-2,3-dihydro-5H-thiazolo[3,2-a]pyridine-3-carboxylic Acid], for which the IC50 was more than 25 µM.

Consider `O=C(O)C1CSc2c(C3CC3)c(CSc3nnc(-c4ccc5ccccc5c4)o3)cc(=O)n21` (racemic) [Compound 8d, (±) 8-Cyclopropyl-7-(((5-(naphthalen-2-yl)-1,3,4-oxadiazol-2-yl)thio)methyl)-5-oxo-2,3-dihydro-5H-thiazolo[3,2-a]pyridine-3-carboxylic Acid], for which the IC50 was found to be 3.5 µM.

With `O=C(O)C1CSc2c(C3CC3)c(CSc3nnc(Cc4ccc5ccccc5c4)o3)cc(=O)n21` (racemic) [Compound 8e, (±) 8-Cyclopropyl-7-(((5-(naphthalen-2-ylmethyl)-1,3,4-oxadiazol-2-yl)thio)methyl)-5-oxo-2,3-dihydro-5H-thiazolo[3,2-a]pyridine-3-carboxylic Acid], the IC50 is more than 25 µM.

Consider `O=C(O)C1CSc2c(C3CC3)c(CSc3nnc(-c4ccc([N+](=O)[O-])cc4)o3)cc(=O)n21` (racemic) [Compound 8g, (±) 8-Cyclopropyl-7-(((5-(4-nitrophenyl)-1,3,4-oxadiazol-2-yl)thio)methyl)-5-oxo-2,3-dihydro-5H-thiazolo[3,2-a]pyridine-3-carboxylic Acid], for which the IC50 is more than 25 µM.

With `COc1cccc(-c2nnc(SCc3cc(=O)n4c(c3C3CC3)SCC4C(=O)O)o2)c1` (racemic) [Compound 8h, (±) 8-Cyclopropyl-7-(((5-(3-methoxyphenyl)-1,3,4-oxadiazol-2-yl)thio)methyl)-5-oxo-2,3-dihydro-5H-thiazolo[3,2-a]pyridine-3-carboxylic Acid], the concentration for half-maximal inhibition (IC50) is more than 25 µM.

`O=C(O)C1CSc2c(C3CC3)c(CSc3nnc(-c4ccncc4)o3)cc(=O)n21` (racemic) [Compound 8i, (±) 8-Cyclopropyl-5-oxo-7-(((5-(pyridin-4-yl)-1,3,4-oxadiazol-2-yl)thio)methyl)-2,3-dihydro-5H-thiazolo[3,2-a]pyridine-3-carboxylic Acid]: the IC50 is more than 25 µM.

`O=C(O)C1CSc2c(C3CC3)c(CSc3nnc(-c4cccs4)o3)cc(=O)n21` (racemic) [Compound 8j, (±) 8-Cyclopropyl-5-oxo-7-(((5-(thiophen-2-yl)-1,3,4-oxadiazol-2-yl)thio)methyl)-2,3-dihydro-5H-thiazolo[3,2-a]pyridine-3-carboxylic Acid]: the IC50 is more than 25 µM.

As for `O=C(O)C1CSc2c(C3CC3)c(CSc3nnc(-c4ccco4)o3)cc(=O)n21` (racemic) [Compound 8k, (±) 8-Cyclopropyl-7-(((5-(furan-2-yl)-1,3,4-oxadiazol-2-yl)thio)methyl)-5-oxo-2,3-dihydro-5H-thiazolo[3,2-a]pyridine-3-carboxylic Acid], the concentration for half-maximal inhibition (IC50) was more than 25 µM.

`O=C(O)C1CSc2c(C3CC3)c(CSc3nnc(COc4ccc(F)cc4)o3)cc(=O)n21` (racemic) [Compound 8l, (±) 8-Cyclopropyl-7-(((5-((4-fluorophenoxy)methyl)-1,3,4-oxadiazol-2-yl)thio)methyl)-5-oxo-2,3-dihydro-5H-thiazolo[3,2-a]pyridine-3-carboxylic Acid]: the IC50 was more than 25 µM.

With `O=C(O)C1CSc2c(C3CC3)c(-c3nc4ccccc4[nH]3)cc(=O)n21` (racemic) [Compound 10, (±) 7-(1H-benzo[d]imidazole-2-yl)-8-cyclopropyl-5-oxo-2,3-dihydro-5H-thiazolo[3,2-a]pyridine-3-carboxylic Acid], the IC50 was more than 25 µM.

On to `O=C(O)C1CSc2c(C3CC3)c(-c3nc4ccccc4o3)cc(=O)n21` (racemic) [Compound 13, (±) 7-(Benzo[d]oxazol-2-yl)-8-cyclopropyl-5-oxo-2,3-dihydro-5H-thiazolo[3,2-a]pyridine-3-carboxylic Acid], for which the IC50 was more than 25 µM.

As to `O=C(O)C1CSc2c(C3CC3)c(-c3cn(-c4cccc5ccccc45)nn3)cc(=O)n21` (racemic) [Compound 15a, (±) 8-Cyclopropyl-7-(1-(naphthalen-1-yl)-1H-1,2,3-triazol-4-yl)-5-oxo-2,3-dihydro-5H-thiazolo[3,2-a]pyridine-3-carboxylic Acid], the IC50 was more than 25 µM.

With `O=C(O)C1CSc2c(C3CC3)c(-c3cn(-c4cccc(C(F)(F)F)c4)nn3)cc(=O)n21` (racemic) [Compound 15b, (±) 8-Cyclopropyl-5-oxo-7-(1-(3-(trifluoromethyl)phenyl)-1H-1,2,3-triazol-4-yl)-2,3-dihydro-5H-thiazolo[3,2-a]pyridine-3-carboxylic Acid], the IC50 was more than 25 µM.

As to `O=C(O)C1CSc2c(C3CC3)c(-c3cn(-c4ccc5ccccc5c4)nn3)cc(=O)n21` (racemic) [Compound 15c, (±) 8-Cyclopropyl-7-(1-(naphthalen-2-yl)-1H-1,2,3-triazol-4-yl)-5-oxo-2,3-dihydro-5H-thiazolo[3,2-a]pyridine-3-carboxylic Acid], the IC50 is 7.37 ± 0.83 µM.

Regarding `O=C(O)C1CSc2c(C3CC3)c(-c3cc(-c4cccc5ccccc45)no3)cc(=O)n21` (racemic) [Compound 17a, (±) 8-Cyclopropyl-7-(3-(naphthalen-1-yl)isoxazol-5-yl)-5-oxo-2,3-dihydro-5H-thiazolo[3,2-a]pyridine-3-carboxylic Acid], the IC50 was 1.86 ± 1.13 µM.

Regarding `O=C(O)C1CSc2c(C3CC3)c(-c3cc(-c4cccc(C(F)(F)F)c4)no3)cc(=O)n21` (racemic) [Compound 17b, (±) 8-Cyclopropyl-5-oxo-7-(3-(3-(trifluoromethyl)phenyl)isoxazol-5-yl)-2,3-dihydro-5H-thiazolo[3,2-a]pyridine-3-carboxylic Acid], the IC50 was found to be 3.04 ± 0.58 µM.

For `O=C(O)C1CSc2c(C3CC3)c(-c3cc(C4CC4)no3)cc(=O)n21` (racemic) [Compound 17c, (±) 8-Cyclopropyl-7-(3-cyclopropylisoxazol-5-yl)-5-oxo-2,3-dihydro-5H-thiazolo[3,2-a]pyridine-3-carboxylic Acid], the IC50 was more than 25 µM.

As to `O=C(O)C1CSc2c(C3CC3)c(-c3cc(C4CCCCC4)no3)cc(=O)n21` (racemic) [Compound 17d, (±) 7-(3-Cyclohexylisoxazol-5-yl)-8-cyclopropyl-5-oxo-2,3-dihydro-5H-thiazolo[3,2-a]pyridine-3-carboxylic Acid], the IC50 was more than 25 µM.

Turning to `COc1ccc(-c2cc(-c3cc(=O)n4c(c3C3CC3)SCC4C(=O)O)on2)cc1` (racemic) [Compound 17e, (±) 8-Cyclopropyl-7-(3-(4-methoxyphenyl)isoxazol-5-yl)-5-oxo-2,3-dihydro-5H-thiazolo[3,2-a]pyridine-3-carboxylic Acid], the IC50 was determined as 2.62 ± 0.28 µM.

As for `O=C(O)C1CSc2c(C3CC3)c(-c3cc(-c4ccc([N+](=O)[O-])cc4)no3)cc(=O)n21` (racemic) [Compound 17f, (±) 8-Cyclopropyl-7-(3-(4-nitrophenyl)isoxazol-5-yl)-5-oxo-2,3-dihydro-5H-thiazolo[3,2-a]pyridine-3-carboxylic Acid], the IC50 is 9.27 ± 0.62 µM.

As to `O=C(O)C1CSc2c(C3CC3)c(-c3cc(-c4c5ccccc5cc5ccccc45)no3)cc(=O)n21` (racemic) [Compound 17i, (±) 7-(3-(Anthracen-9-yl)isoxazol-5-yl)-8-cyclopropyl-5-oxo-2,3-dihydro-5H-thiazolo[3,2-a]pyridine-3-carboxylic Acid], the IC50 came out at 1.56 ± 0.31 µM.

On to `CC(C)(C)c1cc(-c2cc(-c3cc(=O)n4c(c3C3CC3)SCC4C(=O)O)on2)cc(C(C)(C)C)c1` (racemic) [Compound 17k, (±) 8-Cyclopropyl-7-(3-(3,5-di-tert-butylphenyl)isoxazol-5-yl)-5-oxo-2,3-dihydro-5H-thiazolo[3,2-a]pyridine-3-carboxylic Acid], for which the IC50 was 3.13 ± 0.16 µM.

Consider `O=C(O)C1CSc2c(C3CC3)c(-c3cc(-c4cc(F)cc(F)c4)no3)cc(=O)n21` (racemic) [Compound 17l, (±) 8-Cyclopropyl-7-(3-(3,5-difluorophenyl)isoxazol-5-yl)-5-oxo-2,3-dihydro-5H-thiazolo[3,2-a]pyridine-3-carboxylic Acid], for which the IC50 came out at 23.6 ± 1.51 µM.

With `O=C(O)C1CSc2c(C3CC3)c(-c3cc(-c4ccc(F)c5ccccc45)no3)cc(=O)n21` (racemic) [Compound 17m, (±) 8-Cyclopropyl-7-(3-(4-fluoronaphthalen-1-yl)isoxazol-5-yl)-5-oxo-2,3-dihydro-5H-thiazolo[3,2-a]pyridine-3-carboxylic Acid], the IC50 was 4 ± 0.67 µM.

`O=C(O)C1CSc2c(C3CC3)c(-c3cc(-c4cccs4)no3)cc(=O)n21` (racemic) [Compound 17n, (±) 8-Cyclopropyl-5-oxo-7-(3-(thiophen-2-yl)isoxazol-5-yl)-2,3-dihydro-5H-thiazolo[3,2-a]pyridine-3-carboxylic Acid]: the IC50 was more than 25 µM.

As for `O=C(O)C1CSc2c(C3CC3)c(-c3cc(-c4ccc5c(c4)OCO5)no3)cc(=O)n21` (racemic) [Compound 17o, (±) 7-(3-(Benzo[d][1,3]dioxol-5-yl)isoxazol-5-yl)-8-cyclopropyl-5-oxo-2,3-dihydro-5H-thiazolo[3,2-a]pyridine-3-carboxylic Acid], the IC50 was 2.02 ± 0.46 µM.

In the case of `O=C(O)C1CSc2c(C3CC3)c(-c3cc(-c4ccnc5ccccc45)no3)cc(=O)n21` (racemic) [Compound 17p, (±) 8-Cyclopropyl-5-oxo-7-(3-(quinolin-4-yl)isoxazol-5-yl)-2,3-dihydro-5H-thiazolo[3,2-a]pyridine-3-carboxylic Acid], the IC50 came to 11 ± 1.48 µM.

The assay is the same for the next values; noted with them: read-out: MABA mean IC50 ± SD.
On to `O=C(O)C1CSc2c(C3CC3)c(CSc3nnc(-c4ccc5ccccc5c4)o3)cc(=O)n21` (racemic) [Compound 8d, (±) 8-Cyclopropyl-7-(((5-(naphthalen-2-yl)-1,3,4-oxadiazol-2-yl)thio)methyl)-5-oxo-2,3-dihydro-5H-thiazolo[3,2-a]pyridine-3-carboxylic Acid], for which the IC50 amounted to 3.53 ± 1.9 µM.

In general, IC50 refers to the concentration needed to halve the response being measured.
